The values below are quoted from earlier work in article PMC8273902 (Drug Design, Development and Therapy, 2021).

The structures appear in SMILES notation. Where two headings read alike, the source gives them in different places. Bounds are passed on as bounds.

The conditions of this data set: humans.

For `CCCc1nn(C)c2c(=O)[nH]c(-c3cc(S(=O)(=O)N4CCN(C)CC4)ccc3OCC)nc12` [Sildenafil, sildenafil], the Tmax was 1 (0.5–2) h, the Vd/F is given as above 310 L and the t1/2 was 3 to 5 h. Where the note is “100 mg”, the AUC0-t is 1685 (100 mg) h·ng/mL and the Cmax is listed as 560 (100 mg) ng/mL. Moreover, the CL (CL, 50 mg, intravenous) is 41 (CL, 50 mg, intravenous) L/h. Moreover, under “high-fat meal”, the “Food effect: reduction of AUC (systemic exposure)” value is 11%.
For the compound `CN1CC(=O)N2[C@H](c3ccc4c(c3)OCO4)c3[nH]c4ccccc4c3C[C@@H]2C1=O` [Tadalafil, tadalafil], the Dose linearity result is listed as “Linear”, the “Food effect on PK properties” value was “No significant effect”, the Tmax was 2 (0.5–6) h and the Vd/F is 60 to 70 L. For the same compound, under “20 mg”, the AUC0-t is recorded as 8066 (20 mg) h·ng/mL, the CL/F is 2.5 (20 mg) L/h and the Cmax was 378 (20 mg) ng/mL. The “Food effect on PK properties” value (listed as tadalafil) is “not affected by food”.
